Laboratory results from PubChem BioAssay AID1259411 (Chemical Carcinogenesis Research Information System (CCRIS), 2018).
The source made the active and inactive calls. How the calls were made is not given here.

Tested on: rodent carcinogenicity bioassays, tumor incidence
Experiment: CCRIS carcinogenicity studies
How it was run: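 Archive of carcinogenicity, mutagenicity, tumor promotion and tumor inhibition results drawn from journals, NCI reports and other sources, expert-reviewed; covers 1985-2011 and is no longer updated.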

Which results are given for `O=Nc1ccc(NO)cc1`?
carcinogen call (Species: MOUSE, Strain/Sex: B6C3F1/FEMALE, Route: ORAL, Dose: 0, 750, 1500 PPM IN DIET FOR 104 WK (STUDY DURATION: 105 WK), Dose: 0, 750, 1500 PPM IN DIET FOR 104 WK (STUDY DURATION: 105 WK)): inactive; negative; carcinogen call (Species: MOUSE, Strain/Sex: B6C3F1/MALE, Route: ORAL, Dose: 0, 750, 1500 PPM IN DIET FOR 104 WK (STUDY DURATION: 105 WK), Dose: 0, 750, 1500 PPM IN DIET FOR 104 WK (STUDY DURATION: 105 WK)): inactive; negative; carcinogen call (Species: RAT, Strain/Sex: F344/FEMALE, Route: ORAL, Dose: 0, 375, 750 PPM IN DIET FOR 104 WK (STUDY DURATION: 105 WK), Dose: 0, 375, 750 PPM IN DIET FOR 104 WK (STUDY DURATION: 105 WK), Tumor Site: Type of Lesion: URINARY BLADDER: TRANSITIONAL CELL CARCINOMA, TRANSITIONAL CELL PAPILLOMA OR SQUAMOUS CELL CARCINOMA): active; positive; carcinogen call (Species: RAT, Strain/Sex: F344/MALE, Route: ORAL, Dose: 0, 375, 750 PPM IN DIET FOR 104 WK (STUDY DURATION: 105 WK), Dose: 0, 375, 750 PPM IN DIET FOR 104 WK (STUDY DURATION: 105 WK)): inactive; negative

Which results are given for `ClC#CCl`?
carcinogen call (Species: MOUSE, Strain/Sex: NMRI/FEMALE, Route: INHALATION, Dose: 0, 2 PPM 6 HR/D 1 D/WK FOR 18 MO (STUDY DURATION: LIFE), Tumor Site: Type of Lesion: KIDNEY: CYSTADENOMA, LUNG: ADENOMA, HARDERIAN GLAND: CYSTADENOMA, Tumor Site: Type of Lesion: KIDNEY: CYSTADENOMA, LUNG: ADENOMA, HARDERIAN GLAND: CYSTADENOMA): active; positive; carcinogen call (Species: MOUSE, Strain/Sex: NMRI/FEMALE, Route: INHALATION, Dose: 0, 2 PPM 6 HR/D 2 D/WK FOR 18 MO (STUDY DURATION: LIFE), Tumor Site: Type of Lesion: HARDERIAN GLAND: CYSTADENOMA): active; positive; carcinogen call (Species: MOUSE, Strain/Sex: NMRI/FEMALE, Route: INHALATION, Dose: 0, 9 PPM 6 HR/D 1 D/WK FOR 12 MO (STUDY DURATION: LIFE), Tumor Site: Type of Lesion: KIDNEY: CYSTADENOMA, HARDERIAN GLAND: CYSTADENOMA): active; positive; carcinogen call (Species: MOUSE, Strain/Sex: NMRI/MALE, Route: INHALATION, Dose: 0, 2 PPM 6 HR/D 1 D/WK FOR 18 MO (STUDY DURATION: LIFE), Tumor Site: Type of Lesion: KIDNEY: CYSTADENOMA, CYSTADENOCARCINOMA, HARDERIAN GLAND: CYSTADENOMA): active; positive; carcinogen call (Species: MOUSE, Strain/Sex: NMRI/MALE, Route: INHALATION, Dose: 0, 2 PPM 6 HR/D 2 D/WK FOR 18 MO (STUDY DURATION: LIFE), Tumor Site: Type of Lesion: KIDNEY: CYSTADENOMA, HARDERIAN GLAND: CYSTADENOMA): active; positive; carcinogen call (Species: MOUSE, Strain/Sex: NMRI/MALE, Route: INHALATION, Dose: 0, 9 PPM 6 HR/D 1 D/WK FOR 12 MO (STUDY DURATION: LIFE), Tumor Site: Type of Lesion: KIDNEY: CYSTADENOMA, CYSTADENOCARCINOMA): active; positive; carcinogen call (Species: RAT, Strain/Sex: WISTAR/FEMALE, Route: INHALATION, Dose: 0, 14 PPM 6 HR/D 2 D/WK FOR 18 MO (STUDY DURATION: LIFE), Tumor Site: Type of Lesion: KIDNEY: CYSTADENOMA, LIVER: CHOLANGIOMA, HEMOPOIETIC SYSTEM: MALIGNANT LYMPHOMA, Tumor Site: Type of Lesion: KIDNEY: CYSTADENOMA, LIVER: CHOLANGIOMA, HEMOPOIETIC SYSTEM: MALIGNANT LYMPHOMA): active; positive; carcinogen call (Species: RAT, Strain/Sex: WISTAR/MALE, Route: INHALATION, Dose: 0, 14 PPM 6 HR/D 2 D/WK FOR 18 MO (STUDY DURATION: LIFE), Tumor Site: Type of Lesion: KIDNEY: CYSTADENOMA, LIVER: CHOLANGIOMA): active; positive

For `CC(F)(Cl)Cl`, which carcinogen call (Species: RAT, Strain/Sex: SPRAGUE-DAWLEY/FEMALE, Route: INHALATION, Dose: 0, 1500, 5000, 20000 PPM 6 HR/D 5 D/WK FOR 104 WK (THE HIGH EXPOSURE LEVEL WAS INCREASED FROM 15000 PPM TO 20000 PPM AFT, Dose: 0, 1500, 5000, 20000 PPM 6 HR/D 5 D/WK FOR 104 WK (THE HIGH EXPOSURE LEVEL WAS INCREASED FROM 15000 PPM TO 20000 PPM AFT) is on record?
The carcinogen call was “inactive; negative”.

What about the carcinogen call (Species: RAT, Strain/Sex: SPRAGUE-DAWLEY/MALE, Route: INHALATION, Dose: 0, 1500, 5000, 20000 PPM 6 HR/D 5 D/WK FOR 104 WK (THE HIGH EXPOSURE LEVEL WAS INCREASED FROM 15000 PPM TO 20000 PPM AFT, Dose: 0, 1500, 5000, 20000 PPM 6 HR/D 5 D/WK FOR 104 WK (THE HIGH EXPOSURE LEVEL WAS INCREASED FROM 15000 PPM TO 20000 PPM AFT, Tumor Site: Type of Lesion: TESTES: INTERSTITIAL CELL ADENOMA) of the same compound?
The carcinogen call was “active; positive”.

How did the carcinogen call (Species: RAT, Strain/Sex: F344/FEMALE, Route: INTRAVESICAL, Dose: 0, 374 MG (TOTAL DOSE) INJECTED INTO BLADDER 2/WK OVER 36 WK (STUDY DURATION: 102 WK), Tumor Site: Type of Lesion: NASAL CAVITY: TUMOR) turn out when `O=NN1CCN(N=O)CC1` was run?
The carcinogen call was “active; positive”.

With `Cc1cc2ccccc2c2ccc3c(c12)[C@@H]1O[C@@H]1[C@H](O)[C@H]3O` as the compound, how does the carcinogen call (Species: MOUSE, Strain/Sex: ICR/FEMALE, Route: INTRAPERITONEAL, Dose: 0, 8 NMOL IN 5 µL DMSO ON D 1, 16 NMOL IN 10 µL ON D 8 AND 32 NMOL IN 20 µL ON D 15 OF LIFE (STUDY DURATION: 35 WK), Tumor Site: Type of Lesion: LUNG: TUMOR) read?
Its carcinogen call is “active; positive”.

What about the carcinogen call (Species: MOUSE, Strain/Sex: ICR/FEMALE, Route: INTRAPERITONEAL, Dose: 0, 8 NMOL IN 5 µL DMSO TO PUPS ON D 1/OF LIFE THEN 16 NMOL IN 10 µL ON D 8 AND 3 NMOL IN 20 µL ON D 15 (STUDY DURATION:, Tumor Site: Type of Lesion: LUNG: TUMOR) of the same compound?
Its carcinogen call is “active; positive”.

And the carcinogen call (Species: MOUSE, Strain/Sex: ICR/FEMALE, Route: INTRAPERITONEAL, Dose: 8 NMOL/5 µL DMSO ON DAY 1, 16 NMOL/10 µL ON DAY 8, AND 32 NMOL/20 µL ON DAY 15 OF AGE (STUDY DURATION: 35 WK), Tumor Site: Type of Lesion: LUNG: TUMORS)?
The carcinogen call was “active; positive”.

What about the carcinogen call (Species: MOUSE, Strain/Sex: ICR/MALE, Route: INTRAPERITONEAL, Dose: 0, 8 NMOL IN 5 µL DMSO ON D 1, 16 NMOL IN 10 µL ON D 8 AND 32 NMOL IN 20 µL ON D 15 OF LIFE (STUDY DURATION: 35 WK), Tumor Site: Type of Lesion: LUNG: TUMOR, LIVER: TUMOR) of the same compound?
The carcinogen call was “active; positive”.

And the carcinogen call (Species: MOUSE, Strain/Sex: ICR/MALE, Route: INTRAPERITONEAL, Dose: 0, 8 NMOL IN 5 µL DMSO TO PUPS ON D 1/OF LIFE THEN 16 NMOL IN 10 µL ON D 8 AND 3 NMOL IN 20 µL ON D 15 (STUDY DURATION:, Tumor Site: Type of Lesion: LUNG: TUMOR, LIVER: TUMOR)?
The carcinogen call was “active; positive”.

And the carcinogen call (Species: MOUSE, Strain/Sex: ICR/MALE, Route: INTRAPERITONEAL, Dose: 8 NMOL/5 µL DMSO ON DAY 1, 16 NMOL/10 µL ON DAY 8, AND 32 NMOL/20 µL ON DAY 15 OF AGE (STUDY DURATION: 35 WK), Tumor Site: Type of Lesion: LUNG: TUMORS, LIVER: TUMORS)?
Its carcinogen call is “active; positive”.

What does the source list for `CCN(CC)C(=S)S`?
carcinogen call (Species: MOUSE, Strain/Sex: B6C3F1/FEMALE, Route: ORAL, Dose: 0, 500, 4000 PPM IN DIET, Dose: 0, 500, 4000 PPM IN DIET): inactive; negative; carcinogen call (Species: MOUSE, Strain/Sex: B6C3F1/MALE, Route: ORAL, Dose: 0, 500, 4000 PPM IN DIET, Dose: 0, 500, 4000 PPM IN DIET): inactive; negative; carcinogen call (Species: RAT, Strain/Sex: F344/FEMALE, Route: ORAL, Dose: 0, 1250, 2000 PPM IN DIET, Dose: 0, 1250, 2000 PPM IN DIET): inactive; negative; carcinogen call (Species: RAT, Strain/Sex: F344/MALE, Route: ORAL, Dose: 0, 1250, 2000 PPM IN DIET, Dose: 0, 1250, 2000 PPM IN DIET): inactive; negative
